Measured values taken from PubChem BioAssay AID342 (DTP/NCI, 2004).
“And” between values parts separate entries of the source, which are not always exact repeats. Identical values can stand only once.

System: Swiss mice, Sarcoma 180 sc, mean tumor weight T/C
Test: NCI In Vivo Anticancer Drug Screen. Data for tumor model Sarcoma 180 (subcutaneous) in Swiss mice
Conditions: endpoint: mean tumor weight, higher = larger tumour
Description: The antitumor activity of compounds was measured in mice bearing transplantable tumors. Survival or tumor size were measured and the results are expressed as the measurement made in the treated group (T) divided by the measurement made in the vehicle treated control group (C). The tumor model used in this assay is Sarcoma 180 (subcutaneous) in Swiss mice

[1] = dose: 80.0 mg/kg/injection, schedule: Q01DX007 (ip), vehicle: carboxymethylcellulose (CMC)

CCc1c(CC(=O)O)c2cc(C)ccc2n1Cc1ccc(Cl)cc1
T/C (dose: 6.25 mg/kg/injection, schedule: Q01DX007 (ip), vehicle: saline): 82 % of control
T/C (dose: 12.5 mg/kg/injection, schedule: Q01DX007 (ip), vehicle: saline): 98 % of control and 87 % of control
T/C (dose: 24.0 mg/kg/injection, schedule: Q01DX007 (ip), vehicle: carboxymethylcellulose (CMC)): 95 % of control
T/C (dose: 36.0 mg/kg/injection, schedule: Q01DX007 (ip), vehicle: carboxymethylcellulose (CMC)): 89 % of control
T/C (dose: 54.0 mg/kg/injection, schedule: Q01DX007 (ip), vehicle: carboxymethylcellulose (CMC)): 109 % of control
T/C (dose: 81.0 mg/kg/injection, schedule: Q01DX007 (ip), vehicle: carboxymethylcellulose (CMC)): 73 % of control
T/C (dose: 100.0 mg/kg/injection, schedule: Q01DX007 (ip), vehicle: saline): 64 % of control and 80 % of control

C=CCn1cnc2c(=S)nc[nH]c21
T/C (dose: 31.0 mg/kg/injection, schedule: Q01DX007 (ip), vehicle: carboxymethylcellulose (CMC)): 86 % of control
T/C (dose: 62.0 mg/kg/injection, schedule: Q01DX007 (ip), vehicle: carboxymethylcellulose (CMC)): 54 % of control

O=c1[nH]c(=O)n(C2CC(O)C(CO)O2)cc1F (configuration not stated)
T/C (dose: 2.0 mg/kg/injection, schedule: Q01DX007 (ip), vehicle: carboxymethylcellulose (CMC)): 97 % of control
T/C (dose: 4.0 mg/kg/injection, schedule: Q01DX007 (ip), vehicle: carboxymethylcellulose (CMC)): 108 % of control
T/C (dose: 8.0 mg/kg/injection, schedule: Q01DX007 (ip), vehicle: carboxymethylcellulose (CMC)): 97 % of control
T/C (dose: 10.0 mg/kg/injection, schedule: Q#A X014 (ip), vehicle: carboxymethylcellulose (CMC)): 27 % of control
T/C (dose: 12.5 mg/kg/injection, schedule: Q#A X014 (ip), vehicle: carboxymethylcellulose (CMC)): 28 % of control
T/C (dose: 16.0 mg/kg/injection, schedule: Q01DX007 (ip), vehicle: carboxymethylcellulose (CMC)): 94 % of control
T/C (dose: 20.0 mg/kg/injection, schedule: Q01DX007 (ip), vehicle: saline): 119 % of control
T/C (dose: 20.0 mg/kg/injection, schedule: Q#A X014 (ip), vehicle: carboxymethylcellulose (CMC)): 14 % of control
T/C (dose: 25.0 mg/kg/injection, schedule: Q#A X014 (ip), vehicle: carboxymethylcellulose (CMC)): 10 % of control
T/C (dose: 40.0 mg/kg/injection, schedule: Q01DX007 (ip), vehicle: saline): 86 % of control
T/C (dose: 40.0 mg/kg/injection, schedule: Q#A X014 (ip), vehicle: carboxymethylcellulose (CMC)): 4 % of control
T/C [1]: 29 % of control
T/C (dose: 80.0 mg/kg/injection, schedule: Q01DX007 (ip), vehicle: saline): 109 % of control
T/C (dose: 80.0 mg/kg/injection, schedule: Q#A X014 (ip), vehicle: carboxymethylcellulose (CMC)): 15 % of control
T/C (dose: 106.6 mg/kg/injection, schedule: Q01DX007 (ip), vehicle: carboxymethylcellulose (CMC)): 7 % of control
T/C (dose: 128.0 mg/kg/injection, schedule: Q01DX007 (ip), vehicle: carboxymethylcellulose (CMC)): 8 % of control
T/C (dose: 160.0 mg/kg/injection, schedule: Q01DX007 (ip), vehicle: carboxymethylcellulose (CMC)): 5 % of control
T/C (dose: 160.0 mg/kg/injection, schedule: Q01DX007 (ip), vehicle: saline): 56 % of control

CCCCNc1nc(NCCCC)c2nsnc2n1
T/C [1]: 46 % of control
T/C (dose: 100.0 mg/kg/injection, schedule: Q01DX007 (ip), vehicle: carboxymethylcellulose (CMC)): 56 % of control

O=C(O)c1c(-c2ccccc2)[nH]c2cc(Cl)ccc2c1=O
T/C (dose: 55.5 mg/kg/injection, schedule: Q01DX007 (ip), vehicle: carboxymethylcellulose (CMC)): 87 % of control
T/C (dose: 83.0 mg/kg/injection, schedule: Q01DX007 (ip), vehicle: carboxymethylcellulose (CMC)): 51 % of control
T/C (dose: 125.0 mg/kg/injection, schedule: Q01DX007 (ip), vehicle: carboxymethylcellulose (CMC)): 25 % of control

Nc1nc(SN=Nc2ccc(S(=O)(=O)O)cc2)c2[nH]cnc2n1
T/C (dose: 1.75 mg/kg/injection, schedule: Q01DX007 (ip), vehicle: other): 104 % of control
T/C (dose: 3.5 mg/kg/injection, schedule: Q01DX007 (ip), vehicle: other): 80 % of control
T/C (dose: 6.0 mg/kg/injection, schedule: Q01DX007 (ip), vehicle: other): 65 % of control
T/C (dose: 7.0 mg/kg/injection, schedule: Q01DX007 (ip), vehicle: other): 46 % of control
T/C (dose: 9.0 mg/kg/injection, schedule: Q01DX007 (ip), vehicle: other): 57 % of control
T/C (dose: 14.0 mg/kg/injection, schedule: Q01DX007 (ip), vehicle: other): 18 % of control and 27 % of control and 33 % of control
T/C (dose: 21.0 mg/kg/injection, schedule: Q01DX007 (ip), vehicle: other): 1 % of control and 14 % of control

Cc1cc(N=C2C=CC(=O)C=C2)c(C(C)C)cc1O
T/C (dose: 200.0 mg/kg/injection, schedule: Q01DX007 (ip), vehicle: other): 52 % of control
T/C (dose: 300.0 mg/kg/injection, schedule: Q01DX007 (ip), vehicle: other): 61 % of control
T/C (dose: 450.0 mg/kg/injection, schedule: Q01DX007 (ip), vehicle: other): 59 % of control
T/C (dose: 600.0 mg/kg/injection, schedule: Q01DX007 (ip), vehicle: other): 53 % of control

C[C@H]1CC[C@@H]2[C@@H](C)[C@H]3[C@H](C[C@H]4[C@@H]5CC=C6C[C@@H](O)CC[C@]6(C)[C@H]5C[C@H](O)[C@]34C)N2C1
T/C (dose: 10.0 mg/kg/injection, schedule: Q01DX007 (sc), vehicle: steriod suspending solution): 73 % of control
T/C (dose: 50.0 mg/kg/injection, schedule: Q01DX007 (sc), vehicle: steriod suspending solution): 44 % of control
T/C (dose: 100.0 mg/kg/injection, schedule: Q01DX007 (sc), vehicle: steriod suspending solution): 62 % of control

CCCOc1ccc2c(c1)CC[C@@H]1[C@@H]2CC[C@@]2(C)[C@H]1CC[C@]2(C)O
T/C (dose: 0.5 mg/kg/injection, schedule: Q#A X014 (sc), vehicle: steriod suspending solution): 110 % of control
T/C (dose: 5.0 mg/kg/injection, schedule: Q#A X014 (sc), vehicle: steriod suspending solution): 63 % of control
T/C (dose: 50.0 mg/kg/injection, schedule: Q#A X014 (sc), vehicle: steriod suspending solution): 84 % of control

CCOC(=O)NP(=O)(N1CC1)N1CC1
T/C (dose: 937.0 micrograms/kg/injection, schedule: Q01DX007 (ip), vehicle: carboxymethylcellulose (CMC)): 113 % of control
T/C (dose: 1875.0 micrograms/kg/injection, schedule: Q01DX007 (ip), vehicle: carboxymethylcellulose (CMC)): 100 % of control
T/C (dose: 7500.0 micrograms/kg/injection, schedule: Q01DX007 (ip), vehicle: carboxymethylcellulose (CMC)): 74 % of control

CO[C@@H]1[C@@H](OC2OC(C)C(OC3CC(C)(O)C(OC(=O)CC(C)C)C(C)O3)C(N(C)C)C2O)[C@@H](CC=O)C[C@@H](C)C(=O)/C=C/C2O[C@H]2C[C@@H](C)OC(=O)C[C@H]1OC(C)=O (some centres not stated)
T/C (dose: 25.0 mg/kg/injection, schedule: Q#A X014 (ip), vehicle: methylcellulose (MC)): 86 % of control
T/C (dose: 50.0 mg/kg/injection, schedule: Q#A X014 (ip), vehicle: methylcellulose (MC)): 116 % of control
T/C (dose: 75.0 mg/kg/injection, schedule: Q#A X014 (ip), vehicle: methylcellulose (MC)): 88 % of control
T/C (dose: 100.0 mg/kg/injection, schedule: Q#A X014 (ip), vehicle: methylcellulose (MC)): 95 % of control
T/C (dose: 100.0 mg/kg/injection, schedule: Q#A X014 (ip), vehicle: other): 96 % of control
T/C (dose: 125.0 mg/kg/injection, schedule: Q#A X014 (ip), vehicle: methylcellulose (MC)): 75 % of control
T/C (dose: 125.0 mg/kg/injection, schedule: Q#A X014 (ip), vehicle: other): 113 % of control
T/C (dose: 150.0 mg/kg/injection, schedule: Q#A X014 (ip), vehicle: other): 65 % of control
T/C (dose: 175.0 mg/kg/injection, schedule: Q#A X014 (ip), vehicle: other): 57 % of control

CC(=O)OCC1OC(n2ccc(N)nc2=O)C(OC(C)=O)C1OC(C)=O (configuration not stated)
T/C (dose: 50.0 mg/kg/injection, schedule: Q01DX007 (oral), vehicle: carboxymethylcellulose (CMC)): 44 % of control
T/C (dose: 100.0 mg/kg/injection, schedule: Q01DX007 (oral), vehicle: carboxymethylcellulose (CMC)): 32 % of control
T/C (dose: 200.0 mg/kg/injection, schedule: Q01DX007 (oral), vehicle: carboxymethylcellulose (CMC)): 32 % of control
T/C (dose: 400.0 mg/kg/injection, schedule: Q01DX007 (oral), vehicle: carboxymethylcellulose (CMC)): 63 % of control

Clc1[nH]nc2ccccc12
T/C (dose: 42.0 mg/kg/injection, schedule: Q#A X014 (ip), vehicle: methylcellulose (MC)): 62 % of control and 85 % of control (2×)

NNC(=O)c1nsnc1N
T/C (dose: 75.0 mg/kg/injection, schedule: Q01DX007 (ip), vehicle: carboxymethylcellulose (CMC)): 97 % of control
